Marks after values point to notes of the source that are not given here. Each block holds one substance with its values, some of them ahead of it.
Key:
DPP-IV = tested on: DPP-IV; set-up: method as in Vilcacundo et al. [40]; details: 250 μM; ref Vilcacundo et al. [40]; cited from earlier work
α-glucosidase = details: 250 μM; ref Vilcacundo et al. [40]; cited from earlier work
From the text: The inhibitory effects of quinoa-derived peptides (YDDER, NIYQIS, and QDQHQKIR) toward α-glucosidase are depicted in Table .

α-amylase = details: ref Zhou et al. [70]; cited from earlier work
From the text: As α-amylase plays a significant role in T2DM, this study investigated the inhibitory effects of synthetic quinoa peptides on this enzyme.

[1] = tested on: angiotensin I converting enzyme; assay: ACE-I inhibitory activity (fluorometric kit CS0002); type: biochemical; details: fluorometric kit, 37 °C, mean ± SD, n = 9
Experimental: ACE-I inhibitory assay was determined by ACE-I activity assay kit (fluorometric, CS0002). This assay is based on the hydrolysis of angiotensin I by ACE to yield angiotensin II. Briefly, all reagents were diluted in the assay buffer, and a total of 50 μL of peptide sample, positive control (captopril PHR1307), and assay buffer (blank) were added to a 96-well black plate. The standard was added at 0, 0.1, 0.2, 0.3, 0.4, 0.5, 0.6, and 0.8 nmol and adjusted to a final volume of 100 μL. […] Finally, fluorescence (λex, 320 nm; λem, 405 nm) was measured in five cycles for 5 min. Linear regressions were determined to calculate the enzymatic activity for each sample per concentration. Thus, one unit was defined as the amount of enzyme that releases 1 nmol of fluorescent substrate in 1 min at 37 °C. Finally, the inhibition (%) of each peptide and positive control was determined using regression analysis of the corresponding dose–response curves.

[2] = tested on: porcine pancreatic α-amylase (PPA); assay: α-Amylase inhibition; type: biochemical; details: CNPG3 substrate, 405 nm, 37 °C, mean ± SD, n = 9
Experimental: α-Amylase inhibition activity was performed using the 3,5-dinitrosalicylic acid (DNS) assay according to Zulfiqar et al. […] Then, 50 μL of substrate (2-chloro-4-nitro-[…] (CNPG3) (2 mM)) was added per well. Finally, absorbance was recorded at 405 nm (SPARK-10M, TECAN, Switzerland) at 37 °C for 10 min in 1-min intervals. The percentage of enzyme inhibition was calculated in relation to 100% enzymatic activity in the negative control (phosphate-buffered saline (PBS) buffer, enzyme, and substrate).

[3] = tested on: 15-LOX enzyme (soybean lipoxygenase); assay: Lipoxygenase inhibitor screening assay (LOX); type: biochemical; details: 31.25 μM; linoleic acid 1 mM, RT, 490 nm
Experimental: Lipoxygenase inhibitory activity assay (LOX) was determined following the manufacturer’s instructions (#760700). Thus, peptide concentrations (31.25–125 μM) were prepared with the assay buffer and tested in triplicate. First, 10 μL of the peptides at each concentration was mixed with 90 μL of 15-LOX enzyme (soybean lipoxygenase) in a 96-well plate. Then, three wells each contained assay buffer as blank (without enzyme), assay buffer as vehicle (with enzyme), and 15-LOX as positive control. Afterward, 10 μL of linoleic acid (1 mM) (substrate) was added to all wells and shaken for 10 min at RT. Finally, 100 μL of chromogen was added to all wells, and the plate was sealed and shaken for an additional 5 min at RT. The final reaction was measured at 490 nm, and the percentage of inhibition was calculated as. %inhibition=[1−Correctedvaluesofpeptide/Correctedvaluesofvehicle]×100

human DPP-IV = assay: DPP-IV inhibitory activity; type: biochemical; details: H-Gly-Pro-pNA, 37 °C, mean ± SD, n = 9
Experimental: Dipeptidyl peptidase-IV (DPP-IV) inhibitory activity was measured following the method by Vilcacundo et al., with slightly modifications. […] For the negative control 70 μL of Tris Buffer was added. Finally, 100 μL of substrate (H-Gly-Pro-pNA, 100 mM) was added to all wells. The reaction was performed at 37 °C in the microplate reader (BioTek Instruments, Winooski, VT, USA), and the reaction was read at 405 nm for 30 min, with reading intervals of 2 min. Finally, data were plotted and fitted to a logarithmic regression to obtain dose–response curves.

[4] = tested on: rat intestinal acetone α-glucosidase; assay: α-Glucosidase inhibition; type: biochemical
Experimental: α-Glucosidase inhibition assay was measured following the method of Vilcacundo et al., with slightly modifications. First, 100 μL of sample ([…]), positive control (1 mM acarbose), and/or negative control (Milli-Q-water), were added to 50 μL of rat intestinal acetone α-glucosidase (1 U/mL in 0.1 M, maleate buffer pH 6.9), and the mixture was incubated at 37 °C for 5 min. Then, 50 μL of substrate (2 mM maltose) was added into each tube, which was performed in a Thermomixer (37 °C, 1000 rpm, for 30 min). Finally, the reaction was stopped at 100 °C for 5 min. The glucose concentration in the reaction was measured using GOPOD (glucose oxidase/peroxidase) from Megazyme, with absorbance measured at 560 nm (Gen5 software, version 1.1, BioTek Instruments, Winooski, VT, USA). The percentage of inhibition was calculated relative to the non-inhibited control (negative control).

[5] = Oxygen radical absorbance capacity (ORAC) assay; details: AAPH, fluorescein, 37 °C, 150 min
Experimental: Oxygen radical absorbance capacity (ORAC) assay was performed following the method of Carvalho-Oliveira et al. Briefly, 30 μL of peptide (different concentrations 50–1000 μM) or standard (Trolox at 0–160 μM) were placed in a black 96-well plate. The reaction mixture comprised 180 μL of fluorescein (116.9 nM) and 90 μL of 2,2’-azobis(2-amidinopropane) dihydrochloride (AAPH) (40 mM). Finally, the fluorescence was recorded every 2 min for 150 min at excitation and emission wavelengths of 485 and 520 nm, respectively. All reactions were performed at 37 °C. The results were expressed as μmol Trolox equivalent (TE)/μmol of peptide. Quantification and interpretation of the data were done by Gen5 software, version 1.1 (BioTek Instruments, Winooski, VT, USA).

Fe^2+ chelation assay = details: 125 μM; ferrozine, pH 4.9, 37 °C, 10 min; mean ± SD, n = 9
Experimental: Fe^2+ chelation assay was measured according to Sanchez-Velazquez et al. with slightly modifications. 25 μL of sample (synthetic peptides, […]) or positive control (EDTA, 0.1 μg/μL) was added to 225 μL of buffer (sodium acetate, 100 mM, pH 4.9), then 15 μL of iron solution (0.1%, w/v) and 9 μL of ferrozine (40 mM) were added to start the reaction. For the blank well, 250 μL of buffer was added to the iron solution and ferrozine. The reaction was incubated 10 min at 37 °C and then read at 562 nm (SPARK-10M, TECAN, Switzerland). Fe^2+ chelating activity was calculated as described previously for copper.

Cu^2+ chelation assay = details: pyrocatechol violet, pH 6.0, 37 °C, 10 min, mean ± SD, n = 9
Experimental: Cu^2+ chelation assay was determined according to Sanchez-Velazquez et al., with slight modifications. Briefly, 21 μL of sample (synthetic peptides, […]) or positive control (EDTA, 0.1 μg/μL) was added to 185 μL of buffer (sodium acetate, 50 mM, pH 6.0), and then 15 μL of copper solution (10 μg) and 9 μL of pyrocatechol violet (2 mM) were added for the reaction. For the blank well, 205 μL of buffer was added to the copper and pyrocatechol violet reaction mixture. The reaction was incubated for 10 min at 37 °C and then read at 632 nm (SPARK-10M, TECAN, Switzerland). Cu^2+ chelating activity was calculated as: %Chelatingactivity=Abscontrol−Abssample/Abscontrol×100

ACE-I = details: Chenopodium quinoa Willd peptide; ref Zheng et al. [24]; read-out: ACE-I inhibition IC50; cited from earlier work
From the text: (§1) Yudho-Sutopo et al. reported the ACE-I inhibitory activity of four synthetic peptides from pearl garlic (DHSTAVW, KLAKVF, KLSTAASF, and KETPEAHVF). […] According to Yudho-Sutopo et al., the hydrophobic amino acid in the C-terminal and amino acids with a positively charged side-chain amino group, like in DHSTAVW, are determinants in the inhibition of ACE-I. Furthermore, a study by Zheng et al. reported an ACE-I inhibitory peptide – RGQVIYVL – from Chenopo ...

[6] = ref Zheng et al. [24]; cited from earlier work
From the text: as §1

Substance: IQAQGGLT [DPP-IV quinoa-derived peptide reported by Vilcacundo et al]
DPP-IV inhibition (DPP-IV): 17.05%

Substance: IQEGGLT [quinoa-derived peptide reported by Vilcacundo et al]
α-glucosidase inhibition (α-glucosidase): 55.85%

Substance: MMFPH [quinoa-derived peptide reported by Zhou et al]
α-amylase inhibition (α-amylase): stronger α-amylase inhibition

ACE-I inhibition ([1]; 125 μM): 6.8 ± 0.56^f %
inhibition ([1]; 250 μM): 9.75 ± 0.21%
α-amylase inhibition ([2]; 300 μM): 18.43 ± 0.33^a %
inhibition ([2]; 400 μM): 15.6 ± 0.34%
α-amylase inhibition ([2]; 500 μM): 15.37 ± 0.35^b %
LOX inhibition [3]: 8.44%
Substance: QDQHQKIR [quinoa 11S globulin peptide, custom-synthesized by GenScript, purity 95%]
DPP-IV inhibition (human DPP-IV; 125 μM): ND (no inhibitory effect was observed at the given concentration)
DPP-IV inhibition (human DPP-IV; 250 μM): ND (no inhibitory effect was observed at the given concentration)
DPP-IV inhibition (human DPP-IV; 500 μM): 5.26 ± 0.30^c %
α-glucosidase inhibition ([4]; 300 μM, 2 mM maltose, pH 6.9, 37 °C, mean ± SD, n = 9): ND (no inhibitory effect was observed at the given concentration)
α-glucosidase inhibition ([4]; 400 μM, 2 mM maltose, pH 6.9, 37 °C, mean ± SD, n = 9): ND (no inhibitory effect was observed at the given concentration)
α-glucosidase inhibition ([4]; 500 μM, 2 mM maltose, pH 6.9, 37 °C, mean ± SD, n = 9): ND (no inhibitory effect was observed at the given concentration)
α-glucosidase inhibition ([4]; any of the tested concentrations (100–500 μM)): did not present any α-glucosidase inhibition
ORAC [5]: 0.02 μmol TE/μmol peptide
ORAC ([5]; mean ± SD, n = 9): 0.02 ± 0.00^c μM TE/μM Peptide
Fe^2+ chelating activity (Fe^2+ chelation assay): 5.11 ± 1.0%
Cu^2+ chelating activity (Cu^2+ chelation assay; 15.62 μM): 39.79 ± 1.4%
Cu^2+ chelating activity (Cu^2+ chelation assay; 31.25 μM): 37.46 ± 0.26%
Cu^2+ chelating activity (Cu^2+ chelation assay; 62.5 μM): 40.8 ± 0.31%

Substance: RGQVIYVL
IC50 (ACE-I): 38.2 µM
hydrophobic residue content [6]: 62.50%

Reference: article PMC12426930, “Antioxidant, Hypotensive, and Antidiabetic Breakthroughs: Bromelain Hydrolysis Unlocks Quinoa’s Peptide Potential - In Silico and In Vitro Approach” (Journal of Agricultural and Food Chemistry, 2025)
